Molecular target: T1, hA3G (human APOBEC3G) (Homo sapiens, UniProt Q9HC16)
T1 construct: 10067; biotinylated with NHS-biotin 3:1
Experiment: biolayer interferometry (Octet RED, super streptavidin sensors)
Type: binding
Details: biotinylated hA3G immobilised; 5% DMSO; kinetic constant from kon/koff

T1 sequence (Q9HC16 whole entry): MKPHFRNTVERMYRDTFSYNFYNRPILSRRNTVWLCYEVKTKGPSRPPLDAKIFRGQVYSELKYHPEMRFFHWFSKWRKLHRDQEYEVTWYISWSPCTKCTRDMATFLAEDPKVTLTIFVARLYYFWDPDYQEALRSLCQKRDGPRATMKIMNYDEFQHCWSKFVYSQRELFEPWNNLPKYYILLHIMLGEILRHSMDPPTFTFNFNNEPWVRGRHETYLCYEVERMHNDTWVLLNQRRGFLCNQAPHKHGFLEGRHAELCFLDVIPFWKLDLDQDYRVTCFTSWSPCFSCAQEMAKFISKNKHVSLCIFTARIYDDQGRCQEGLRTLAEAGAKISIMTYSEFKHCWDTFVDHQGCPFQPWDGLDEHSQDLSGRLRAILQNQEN

In the case of IMB-301, the “Ligand (hA3G) / KD (M)” value is reported as 1.56E − 05 M.

— article PMC5966509 (Scientific Reports, 2018)
